The values that follow come from article PMC10222548, “Semisynthesis, Biological Evaluation and Molecular Docking Studies of Barbatic Acid Derivatives as Novel Diuretic Candidates” (Molecules, 2023).

A value given as a limit tells only on which side of the number the result lay.

The subject of one series is mice. The arrangement: method as in PMID 32602352. As to conditions: cited from earlier work.
Series [1] relates to C2O4^2− transport, MDCK cells. Description: In vitro litholytic activity: C2O4^2− transport inhibition, Transwell chamber with MDCK cells. Type of series: cell-based, canine. As to conditions: Canis lupus familiaris; 100 μmol/L, MDCK cells in Transwell; mean ± SD of three replicates; read-out: Transport Inhibition Rate (%) C2O4^2−. Summed up: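 MDCK monolayers in Transwell upper chamber, used once resistance ≥300 Ω cm^2, treated 24 h with compounds at 100 μmol/L or saline. CaC2O4 (30 mmol/L) then added above, PBS below; lower-chamber Ca^2+ and C2O4^2− measured by kit at 0.5, 1, 2, 3 h, inhibition rate from OD versus blank.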

In a further series the test system is MDCK cells. Description: MTT cytotoxicity assay on MDCK cells. Type of series: cell-based, canine. The settings on record: Canis lupus familiaris, 100 μmol/L, 24 h, mean ± SD of three replicates, read-out: Growth Inhibition Rate (%). In short, it runs like this:
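MDCK cells at 10^4/well, grown 24 h, exposed 24 h to compound at 100 μmol/L (saline control; hydrochlorothiazide 100 μmol/L reference). MTT 4 h, DMSO solubilization, OD 490 nm; growth inhibition % = (ODblank − ODexperimental)/ODblank × 100.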
A general note: Formazan colour is commonly taken as a measure of viable cells.

For series [2], the system named is Cl^− transport, MDCK cells. The experiment in a line: In vitro diuretic activity: Cl^− transport inhibition, Transwell chamber seeded with MDCK cells. Type of series: cell-based, canine. The settings on record: Canis lupus familiaris; 100 μmol/L, MDCK cells in Transwell; mean ± SD of three replicates; negative = promotion; read-out: Transport Inhibition Rate (%) Cl^−. In short, it runs like this: (§1)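 MDCK monolayers on Transwell inserts (resistance ≥300 Ω cm^2) exposed apically to compounds at 100 μmol/L for 24 h. Then 15 mg/mL NaCl added to upper chamber; Na^+ and Cl^− in lower fluid measured by kit OD at 0.5, 1, 2 and 3 h. Inhibition % = (ODblank − ODexperimental)/ODblank × 100, blank = normal saline.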

In series [3] the test system is Na^+ transport, MDCK cells. The experiment in a line: In vitro diuretic activity: Na^+ transport inhibition, Transwell chamber seeded with MDCK cells. As to conditions: 100 μmol/L, MDCK cells in Transwell, mean ± SD of three replicates, negative = promotion; for inhibition at 100 µM: Canis lupus familiaris, MDCK, read-out: Transport Inhibition Rate (%) Na^+. It counts as cell-based, canine. Summed up: as §1

Series [4] has as its system Ca^2+ transport, MDCK cells. The experiment in a line: In vitro litholytic activity: Ca^2+ transport inhibition, Transwell chamber with MDCK cells. The settings on record: Canis lupus familiaris, 100 μmol/L, mean ± SD of three replicates, read-out: Transport Inhibition Rate (%) Ca^2+. Type of series: cell-based, canine.

With `COc1cc(C)c(C(=O)Oc2cc(C)c(C(=O)O)c(O)c2C)c(O)c1C` [Compound 1, Barbatic acid], the “diuretic effect on mice” value in the series on mice was “had a diuretic effect on mice”. Also, the inhibition – broadly, the relative decrease from the control value, in per cent – at 100 µM is 2.97 ± 2.21% in series [1]; less than 0% with MDCK cells; 2.34 ± 1.2% in series [2]; 12.3 ± 0.5% in series [3]; 8.8 ± 0.18% in series [4].

For `CCCOc1cc(C)c(C(=O)Oc2cc(C)c(C(=O)OC(C)C)c(O)c2C)c(O)c1C` [Compound 6t, 3-hydroxy-4-(isopropoxycarbonyl)-2,5-dimethylphenyl 2-hydroxy-3,6-dimethyl-4-propoxybenzoate], the melting point (in general, the temperature, or range, at which the solid turns liquid) lay in the range of 112 to 115 °C. The inhibition at 100 µM in series [1] was determined as 11.9 ± 5.83%. The inhibition at 100 µM with MDCK cells was found to be 1.42%. Moreover, in series [2], the inhibition at 100 µM was -44.1 ± 3.5%. Further, the inhibition at 100 µM in series [3] is -37.6 ± 0.55%. Also, in series [4], the inhibition at 100 µM was -1.74 ± 0.29%.

Molecule `CCCOc1cc(C)c(C(=O)Oc2cc(C)c(C(=O)OCc3ccccc3)c(O)c2C)c(O)c1C` [Compound 6u, benzyl 2-hydroxy-4-(2-hydroxy-3,6-dimethyl-4-propoxybenzoyloxy)-3,6-dimethylbenzoate] displayed a melting point of 111 to 114 °C. For the same molecule, the inhibition at 100 µM in series [1] was 22.3 ± 5.04%. For the same molecule, the inhibition at 100 µM in the series on MDCK cells is less than 0%. Moreover, the inhibition at 100 µM in series [2] is -15.9 ± 0.55%. The inhibition at 100 µM in series [3] came to 6.31 ± 2.35%. The inhibition at 100 µM in series [4] was 0.77 ± 0.09%.

In the case of `COC(=O)c1c(C)cc(OC(=O)c2c(C)cc(OC(C)C)c(C)c2O)c(C)c1O` [Compound 6v, 3-hydroxy-4-(methoxycarbonyl)-2,5-dimethylphenyl 2-hydroxy-4-isopropoxy-3,6-dimethylbenzoate], the melting point is 60 to 63 °C. In series [1], the inhibition at 100 µM is -17.9 ± 1.35%. For the same molecule, the inhibition at 100 µM with MDCK cells was less than 0%. For the same molecule, the inhibition at 100 µM in series [2] is -13.55 ± 0.1%. For the same molecule, the inhibition at 100 µM in series [3] is -9.43 ± 0.75%. Also, the inhibition at 100 µM in series [4] was 0.19 ± 0.29%.

Take `CCOC(=O)c1c(C)cc(OC(=O)c2c(C)cc(OC(C)C)c(C)c2O)c(C)c1O` [Compound 6w, 4-(ethoxycarbonyl)-3-hydroxy-2,5-dimethylphenyl 2-hydroxy-4-isopropoxy-3,6-dimethylbenzoate]: the melting point was in the range of 62 to 65 °C. Further, the inhibition at 100 µM in series [1] came to 19 ± 2.64%. For the same molecule, in the series on MDCK cells, the inhibition at 100 µM turned out to be 0.7 ± 0.3%. The inhibition at 100 µM in series [2] is -80.4 ± 1.2%. In addition, in series [3], the “Transport Inhibition Rate (%) Na^+” value turned out to be 33.11 ± 0.55% and the inhibition at 100 µM is greater than 30%. For the same molecule, the inhibition at 100 µM in series [4] amounted to 1.55 ± 0.11%.

Molecule `CCCOC(=O)c1c(C)cc(OC(=O)c2c(C)cc(OC(C)C)c(C)c2O)c(C)c1O` [Compound 6x, 3-hydroxy-2,5-dimethyl-4-(propoxycarbonyl)phenyl 2-hydroxy-4-isopropoxy-3,6-dimethylbenzoate] came in with a melting point of 117 to 120 °C. Moreover, in series [1], the inhibition at 100 µM is -5.42 ± 2.83%. Further, the inhibition at 100 µM in the series with MDCK cells is less than 0%. Also, the inhibition at 100 µM in series [2] was -1.92 ± 0.25%. Besides, in series [3], the inhibition at 100 µM was -1.11 ± 1.75%. Besides, the inhibition at 100 µM in series [4] is 2.74 ± 0.22%.

Turning to `Cc1cc(OC(=O)c2c(C)cc(OC(C)C)c(C)c2O)c(C)c(O)c1C(=O)OC(C)C` [Compound 6y, 3-hydroxy-4-(isopropoxycarbonyl)-2,5-dimethylphenyl 2-hydroxy-4-isopropoxy-3,6-dimethylbenzoate], the melting point lay in the range of 140 to 143 °C. Also, the inhibition at 100 µM in series [1] is -26.3 ± 5.41%. In addition, the inhibition at 100 µM in the series on MDCK cells was less than 0%. Further, the inhibition at 100 µM in series [2] was -43.3 ± 3.25%. Moreover, the inhibition at 100 µM in series [3] is 29.4 ± 1.85%. Moreover, the inhibition at 100 µM in series [4] came to 3.47 ± 0.3%.

`C=CCOC(=O)c1c(C)cc(OC(=O)c2c(C)cc(OC(C)C)c(C)c2O)c(C)c1O` [Compound 6z, allyl 2-hydroxy-4-(2-hydroxy-4-isopropoxy-3,6-dimethylbenzoyloxy)-3,6-dimethylbenzoate] gave a melting point of 111 to 114 °C. Moreover, in series [1], the inhibition at 100 µM came out at 0.23 ± 2.16%. Also, the inhibition at 100 µM with MDCK cells turned out to be 2.47 ± 0.5%. In addition, the inhibition at 100 µM in series [2] is -32.6 ± 3.1%. Moreover, the inhibition at 100 µM in series [3] was -22.7 ± 1.05%. The inhibition at 100 µM in series [4] is -2.56 ± 0.17%.
